Results on three molecules are retold here after patent publication US20060045856A1, “Composition containing a dihydroxyacetone precursor” (priority 2004, published 2006).

Data set [1] is described as follows: Maillard browning test, tanning test 2 (aqueous test substance reacted with lysine, with or without lipase). The settings on record: room temperature; for Maillard browning colour after reacting with lysine: 0.1M aqueous solution or suspension + 1M Lysine aqueous solution; for Maillard browning colour after reacting with lysine, + 1% lipase: aqueous. The text has this: (§1) The ability of compounds according to formula I to induce an artificial tanning on the skin can roughly be estimated using a simple Maillard browning test. This visual test is based on the principle that the reaction of skin with DHA to produce an artificial tan proceeds through a complex set of reactions (Maillard reaction) with free amino acids of skin proteins, particularly with arguinine, lysine and histidine.
(§2) The tanning ability of 2,5-dipalmitoyloxymethyl-[1,4]dioxane-2,5-diol (A) is evaluated by means of the Maillard browning effect after reacting with lysine in different solvents (water and the cosmetic oil miglyol) and compared with those of reference compounds: DHA and monomeric DHA-palmitic acid monoester (B) under the same conditions. Besides that, the tanning effect of 2,5-dipalmitoyloxymethyl-[1,4]dioxane-2,5-diol in the presence of lipases (enzymes used by the body to hydrolyse fats) is also studied.

The nature of data set [2]: Maillard browning test, tanning test 1 (test substance in miglyol reacted with lysine). To be noted: for Maillard browning colour after reacting with lysine: Tanning test 1, 0.1M in miglyol + 1M Lysine aqueous solution, room temperature.
Text: as §1, §2

Data set [3] in a line: DHA monomer/dimer content in aqueous solution at elevated temperature. It is filed as physicochemical. To be noted: DHA solutions at 30-50° C. The source says: It is assumed that the improved tanning effect at elevated temperatures in the case of 1,3-dihydroxyacetone is connected with the following mechanism. As a raw material, DHA is in the form of a powder and consists of dimers. Dissolved in water, some of the dimers convert to the active monomeric form, which brings about the tanning reaction. At an elevated water temperature, the amount of monomers increases. […] At the same time, the elevated temperature increases the reaction rate of the tanning reaction. […] It is therefore preferred according to the invention when the solution of the self-tanning substance is heated for about 15 min, but at least about 10 min, before the solution is applied to the human skin.

The melting point is the temperature, or range, at which the solid turns liquid. For the molecule `CCCCCCCCCCCCCCCC(=O)OCC1(O)COC(O)(COC(=O)CCCCCCCCCCCCCCC)CO1` (stereo not shown) [A, 2,5-dipalmitoyloxymethyl-[1,4]dioxane-2,5-diol], the melting point was determined as 95.2 °C. Moreover, the “Maillard browning colour after reacting with lysine” value in data set [1] (2 days) is recorded as “Brown”. In data set [2] (5 h), the “Maillard browning colour after reacting with lysine” value is on record as “Light yellow”. For the same molecule, the “Maillard browning colour after reacting with lysine” value in data set [2] (1 day) is “Yellow”. Also, the “Maillard browning colour after reacting with lysine” value in data set [2] (8 days) is on record as “Brown”. In addition, the “Ability to undergo Maillard browning reactions” value in data set [2] (overall conclusion from tanning tests 1 and 2) is given as “able to undergo Maillard browning reactions”.
Take `CCCCCCCCCCCCCCCC(=O)OCC(=O)CO` [B, monomeric DHA-palmitic acid monoester]: the “Maillard browning colour after reacting with lysine” value was “Yellow” in data set [1] (5 h); “Brown” in data set [1] (1 day); “Light yellow” in data set [2] (1 h); “Yellow” in data set [2] (5 h); “Brown” in data set [2] (1 day); “Dark brown” in data set [2] (8 days). The “Maillard browning colour after reacting with lysine, + 1% lipase” value is reported as “Yellow” in data set [1] (1 h) and “Brown” in data set [1] (1 day).
On to `O=C(CO)CO` [DHA, 1,3-dihydroxyacetone], for which the “Maillard browning colour after reacting with lysine” value in data set [1] (1 h) is “Brown”; in data set [2] (5 h), “Light yellow”; in data set [2] (1 day), “Brown”; in data set [2] (8 days) it was “Dark brown”. Further, the “More active DHA monomers present than in DHA solutions at 20° C.” value in data set [3] is “up to 30%”.
